Test results as given in the supplement of paper PMC10307832.

Key:
Assay in all cases: relative viability (nuclei count vs DMSO), 5 days (fraction); higher = more cells survive
[1] = compound: CC1=C(C=CC(=C1)[N+](=O)[O-])NS(=O)(=O)C2=C(C=CC(=C2)Cl)Cl [FH535] + CS(=O)(=O)N1CCN(Cc2cc3nc(-c4cccc5[nH]ncc45)nc(N4CCOCC4)c3s2)CC1 [Pictilisib] (partner 1 µM)
In short: (§1)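 Lung cancer cell lines in 1536-well plates were dosed by pin tool the day after seeding, either with one drug alone or with a fixed anchor-drug dose plus five library-drug doses (not always all listed) in √10 steps. After 5 days, cells were fixed and their nuclei stained in one step (final 0.05% Triton X-100, 1% formaldehyde, 1 ug/ml Hoechst), then counted on 4× images. Relative viability is the nuclei count in treated wells divided by that in vehicle wells. Values are medians of duplicate plates.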

[2] = compound: CC1=C(C=CC(=C1)[N+](=O)[O-])NS(=O)(=O)C2=C(C=CC(=C2)Cl)Cl [FH535] + CCNC(=O)c1noc(-c2cc(C(C)C)c(O)cc2O)c1-c1ccc(CN2CCOCC2)cc1 [Luminespib] (partner 0.01 µM)
In short: as §1

[3] = compound: CC1=C(C=CC(=C1)[N+](=O)[O-])NS(=O)(=O)C2=C(C=CC(=C2)Cl)Cl [FH535] + CS(=O)(=O)CCNCc1ccc(-c2ccc3ncnc(Nc4ccc(OCc5cccc(F)c5)c(Cl)c4)c3c2)o1 [Lapatinib] (partner 2 µM)
In short: as §1

[4] = compound: CC1=C(C=CC(=C1)[N+](=O)[O-])NS(=O)(=O)C2=C(C=CC(=C2)Cl)Cl [FH535] + CC(=O)Nc1cccc(-n2c(=O)n(C3CC3)c(=O)c3c(Nc4ccc(I)cc4F)n(C)c(=O)c(C)c32)c1 [Trametinib] (partner 0.02 µM)
In short: as §1

[5] = compound: CC1=C(C=CC(=C1)[N+](=O)[O-])NS(=O)(=O)C2=C(C=CC(=C2)Cl)Cl [FH535] + CC(=O)c1c(C)c2cnc(Nc3ccc(N4CCNCC4)cn3)nc2n(C2CCCC2)c1=O [Palbociclib] (partner 0.5 µM)
In short: as §1

Cell Line	relative viability ([1]; first compound 0.04 µM)	relative viability ([1]; first compound 0.1265 µM)	relative viability ([1]; first compound 0.4 µM)	relative viability ([1]; first compound 1.265 µM)	relative viability ([2]; first compound 0.04 µM)	relative viability ([2]; first compound 0.1265 µM)	relative viability ([2]; first compound 0.4 µM)	relative viability ([2]; first compound 1.265 µM)	relative viability ([3]; first compound 0.04 µM)	relative viability ([3]; first compound 0.1265 µM)	relative viability ([3]; first compound 0.4 µM)	relative viability ([3]; first compound 1.265 µM)	relative viability ([4]; first compound 0.04 µM)	relative viability ([4]; first compound 0.1265 µM)	relative viability ([4]; first compound 0.4 µM)	relative viability ([4]; first compound 1.265 µM)	relative viability ([5]; first compound 0.04 µM)	relative viability ([5]; first compound 0.1265 µM)	relative viability ([5]; first compound 0.4 µM)	relative viability ([5]; first compound 1.265 µM)
NCI-H358	0.326	0.338	0.247	0.271	0.325	0.368	0.293	0.308	0.406	0.422	0.441	0.388	0.134	0.143	0.124	0.127	0.121	0.129	0.129	0.134
NCI-H460	0.344	0.338	0.335	0.329	0.0362	0.0377	0.0408	0.0254	0.992	1.08	1	0.575	0.12	0.152	0.157	0.103	0.175	0.253	0.244	0.117
NCI-H520	0.274	0.201	0.303	0.279	0.159	0.212	0.257	0.24	0.848	0.768	0.818	0.761	0.703	0.691	0.696	0.684	0.205	0.248	0.182	0.246
NCI-H647	0.435	0.458	0.434	0.362	0.156	0.167	0.125	0.23	0.971	1.08	0.914	0.864	0.51	0.566	0.424	0.418	0.401	0.445	0.27	0.4
NCI-H650	0.766	0.972	0.959	0.643	0.639	0.732	0.796	0.619	0.718	0.886	0.703	0.68	0.887	0.953	1.04	0.795	0.282	0.35	0.332	0.266
NCI-H661	0.473	0.381	0.392	0.536	0.893	0.928	0.841	0.56	0.452	0.456	0.461	0.344	0.526	0.686	0.553	0.365	0.387	0.399	0.394	0.32
NCI-H727	0.482	0.315	0.401	0.366	0.323	0.5	0.327	0.297	0.85	0.628	0.727	0.665	0.402	0.362	0.365	0.387	0.663	0.634	0.693	0.63
NCI-H838	0.462	0.427	0.379	0.387	0.278	0.419	0.261	0.247	0.971	0.873	0.795	0.734	0.536	0.52	0.452	0.462	0.217	0.222	0.208	0.198
NCI-H1355	0.362	0.503	0.378	0.33	0.667	0.761	0.72	0.463	0.92	1.01	0.933	0.883	0.397	0.428	0.406	0.329	0.394	0.436	0.4	0.324
NCI-H1395	0.583	0.645	0.64	0.541	0.738	0.576	0.784	0.581	0.768	0.968	0.964	0.555	0.936	1.02	1.06	0.874	0.599	0.735	0.63	0.561
NCI-H1437	0.456	0.375	0.427	0.323	1.1	1	0.858	0.449	0.731	0.534	0.631	0.349	0.498	0.567	0.386	0.32	0.316	0.314	0.237	0.229
NCI-H1650	0.503	0.56	0.545	0.594	0.175	0.218	0.201	0.189	0.642	0.73	0.74	0.784	0.476	0.714	0.459	0.584	0.325	0.323	0.303	0.212
NCI-H1651	0.572	0.504	0.562	0.509	1.01	0.701	0.748	0.591	0.815	0.729	0.731	0.669	0.81	0.78	0.79	0.666	0.51	0.497	0.532	0.437
NCI-H1666	0.481	0.443	0.404	0.4	0.988	0.933	0.966	0.983	0.601	0.623	0.634	0.421	0.861	0.869	0.905	0.69	0.674	0.639	0.614	0.631
NCI-H1734	0.458	0.523	0.489	0.416		0.207	0.215	0.176	1.01	1.14	0.955	0.935	0.574	0.671	0.656	0.558	0.375	0.312	0.351	0.332
